# Data published in US20160297828A1, “SPIROCYCLIC COMPOUNDS CONTAINING SPIRO[INDOLYL-3,1'-PYRROLO[3,4-C]PYRROLE] CORE AND SULPHUR-CONTAINING AMINO ACID RESIDUES” (priority 2013, published 2016).
# Marks after values point to notes of the source that are not given here.
# Key:
# Type in all cases: in vivo
# [1] = test system: rats with intracerebral hemorrhage; assay: Lethality of rats with intracerebral hemorrhage of average severity
# Procedure: The chosen model allows to reproduce clinical pattern of […] and is adequate for clinical study of potential neuroprotective agents.
# As comparators the following drugs were used: mexydol (“Mexydol” UC Pharmasoft, Russia), 100 mg/kg; citicoline (“Somazina” Ferrer International, SA, Spain), 250 mg/kg; aktovegin (“Aktovegin”, Nycomed, Austria), 16 mg/kg pyracetam (“Pyracetam” Darnitsa, Ukraine), 400 mg/kg. According to the latest clinical guidelines regarding the treatment of patients with CVA approved by the Ministry of Health of Ukraine (Order No. 602 dated 3 Aug. 2012), all these drugs are allowed to be included into schemes for intensive patients therapy with CVA as neuroprotective agents. They were used at recommended doses for preclinical studies (McGrow C. P. Experimental Cerebral Infarction Effects of Pentobarbital in Mongolian Gerbils/C. P. McGrow//Arch. Neurol.-1977.-Vol. 34, No. 6.-P. 334-336). Experimental therapy of acute cerebral ischemia with SI-86 compound and comparator started 1 hour after IUD once a day for 21 days. […] Reference drugs were injected intraperitoneally (ip). Rats of control pathology group were injected by autoblood and as therapy 0.9% NaCI solution was administered calculated for 2 ml/kg iv.
# Pseudo-operated rats were exposed to all interventions (anesthesia, craniotomy) excluding autoblood administration that leveled traumatic impact of experimental conditions.
# Evaluation of the ability of animals to learn and memorize of aversive stimulus was examined in the test of conditioned response of passive avoidance (CRPA). The technique is based on innate rat instinct to limited shadowy space. The study in rats was conducted in two-compartment unit consisted of two sections—light and dark. An animal was arranged into light compartment, fixing latency time for entering into the dark compartment, wherein rat received current irritation and ran in the light compartment. CRPA retention was tested every other day under latency time change of rat entering into the dark compartment. Also the number of animals was noted not fully entered the dark chamber. Cerebroprotective efficiency criteria of studied compounds were also animal death term (days) and their mortality rate (in %).
# Quantitative data were processed using statistical StatPlus 2009 processing. The statistical significance of differences was assessed by Fisher's angular transformation (lethality outcome), also parametric t Student criterion were used in case of normal distribution of variation series, nonparametric W White criterion—in its absence.
# [2] = test system: rats with intracerebral hemorrhage; assay: Conditioned response of passive avoidance (CRPA) in rats with intracerebral hemorrhage; settings: 21st day, n = 15
# [3] = test system: neuron-specific enolase (NSE); assay: Neuron-specific enolase (NSE) activity in rats with intracerebral hemorrhage (ELISA); settings: for NSE activity (dynamics of neurodestructive changes): acute cerebral hemorrhage, n = 7; for enzyme activity decreased in relation to the control pathology group / efficiency in reducing NSE better than citocoline: hemorrhage
# Procedure: The derivative of 3,2′-spiro-pyrrolo-2-oxindole was investigated in conventionally effective dose of 10 mg/kg […] (iv)—dose that according to the results of our previous studies provided maximum antihypoxic activity of SI-86 compound. Reference drugs were injected intraperitoneally (ip). […] Autoblood was injected to rats with control pathology and 0.9% NaCI solution was administered as therapy calculated for 2 ml/kg ip.
# Psevdooperated rats were exposed to all interventions (anesthesia, craniotomy) with the exception of autoblood administration that leveled traumatic impact of experimental conditions.
# To determine neuron-specific enolase, the specific marker of cerebral ischemia,—for corresponding period (4 th and 21 st day of CVA) in rats, blood was sampled by sagittal sinus puncture (0.2-0.4 ml). NSE activity was measured by ELISA using a set NSE EIA KIT (DAI, USA) on the instrument of the company “Hipson” (Czech Republic).
# liver and pancrea cells = assay: Pro/antiapoptosis properties, electrophoresis of DNA fragments; settings: intact male Wistar rats; 50 mg/kg
# Procedure: The assessment of pro/antiapoptotosis properties of substances was carried in intact male rats of Wistar line. The test substance were administered for 2 weeks by means of a probe in aqueous suspension containing Tween-80 at a dose of 50 mg/kg of body weight. The animals were euthanized by cervical vertebrae translocation 24 hours after the experiment. The identification of apoptosis of liver and pancrea cells was performed using electrophoretic method. […] Cell necrosis conditioned the “smeared” nature of DNA migration zone. The luminescence band of intact DNA was in the starting area.
# The expression of apoptosis manifestations was assessed by registration of DNA fragments via electrophoresis.
# [4] = 12 h, SI-86 10 mg/kg iv, mexydol 100, citocoline 250, actovegin 16, pyracetam 400 mg/kg
smiles,measurement,setting,value
"CSCC[C@@H]1N[C@@]2(C(=O)Nc3ccccc32)[C@@H]2C(=O)N(c3ccc(C)cc3)C(=O)[C@H]12 [SI-86, 5′-(4-Methylphenyl)-3′-[2-(methylthio)ethyl]-3a′,6a′-dihydro-2′H-spiro[indole-3,1′-pyrrolo[3,4-c]pyrrol]-2,4′,6′(1H,3′H,5′H)-trione]","Lethality, %",[1]; [4],0/0%
same,"Lethality, abs.",[1]; [4],0/0%
same,"Lethality, abs.","[1]; 24 h, same doses",0/0%*^#
same,cerebroprotective protection,"[1]; 24 h observation, SI-86 10, mexydol 100, citicoline 250 mg/kg",100%
same,"Lethality, abs.","[1]; 48 h, same doses",0/0%*^#&•$
same,"Lethality, %","[1]; 72 h, same doses",5.9%
same,"Lethality, abs.","[1]; 72 h, same doses",2
same,"Lethality, %","[1]; 96 h, same doses",11.8%
same,"Lethality, abs.","[1]; 96 h, same doses",4
same,"Latent period for entrance into dark compartment, prior study","[2]; SI-86 10 mg/kg iv, mexydol 100, citocoline 250, actovegin 16, pyracetam 400 mg/kg ip",9.50 ± 0.34°*^#•$ s
same,"Latent period for entrance into dark compartment, 24 hours after study",[2]; same doses,127.10 ± 2.71°*^#•$ s
same,NSE activity (dynamics of neurodestructive changes),"[3]; day 4, SI-86 10 mg/kg iv, citocoline 250 mg/kg ip",1.065 ± 0.019*^#•
same,NSE activity (dynamics of neurodestructive changes),"[3]; day 21, same doses",0.260 ± 0.014*^#•
same,enzyme activity decreased in relation to the control pathology group,[3]; 96 hours,2.6 times
same,enzyme activity decreased in relation to the control pathology group,[3]; 21 days,3.6 times
same,efficiency in reducing NSE better than citocoline,[3]; acute period,17.6%
same,efficiency in reducing NSE better than citocoline,[3]; recovery period,15.9%
same,level of apoptosis,liver and pancrea cells,closed to that of control group
